According to publication PMC4052313, “A New Lyngbyatoxin from the Hawaiian Cyanobacterium Moorea producens” (Marine Drugs, 2014):
pIC50, pKi: −log10 of the molar value. Like-named read-outs stand apart in the source and are kept apart here.

Key:
[1] = target: T1, PKCδ-C1B peptide (Mus musculus, UniProt P28867); settings: read-out: Ki for binding to PKCδ-C1B; cited from earlier work
T1 construct: made in house; host or cells: chemical peptide synthesis (no expression host)

[2] = Cytotoxicity assay toward L1210 leukemia cells; assay type: cell-based; settings: mouse
Description: The cytotoxic activities of compounds 1 and 2 were tested toward L1210 mouse leukemia cells. The detailed methods were reported previously. Differences with the reported methods were (a) samples were dissolved with methanol; and (b) the methanol dissolved samples were applied onto each well and air-dried before the addition of L1210 cells.

[3] = test system: shrimp Palaemon paucidens; experiment: Crustacean lethality test, injection into abdominal cavity of shrimp; assay type: in vivo; settings: for LD100 (lethal dose 100%): injection into abdominal cavity, monitored for 4 h
Description: The shrimp Palaemon paucidens (average weight, 0.5 g) was used for the crustacean lethality test. Tested samples were suspended with 1% Tween 20 (polyoxyethylene (20) sorbitan monolaurate). Two micro liter of each sample suspension was injected into the abdominal cavity of the shrimp (n = 3–5). The shrimp were monitored every 30 min for 4 h. Through the lethality tests, the lethal dose 100% values (LD100) were determined. One percent Tween 20 without sample was used as reference. LD100 was defined as weight of sample per unit weight of crustacean.

[4] = target: T1, PKCδ-C1B peptide; experiment: Competition binding assay with [3H]PDBu using synthetic PKCδ-C1B peptide
Description: The binding of [^3H]PDBu to the PKCδ-C1B peptide was evaluated by the procedure of Sharkey and Blumberg with modifications as reported previously using 50 mM tris-maleate buffer (pH 7.4 at 4 °C), 13.8 nM PKCδ-C1B peptide, 20 nM [^3H]PDBu (18.7 Ci/mmol, Perkin-Elmer Life Sciences), 50 μg/mL 1,2-dioleoyl-sn-glycero-3-phospho-L-serine (Sigma, St. Louis, MO, USA), 3 mg/mL bovine γ-globulin (Sigma, St. Louis, MO, USA), and various concentrations of inhibitors. The concentration of the properly folded PKCδ-C1B peptide was estimated to be about 3 nM on the basis of Bmax values of Scatchard analyses reported previously. Binding affinity was evaluated based on the concentration required to cause 50% inhibition of the specific binding of [^3H]PDBu, the IC50, which was calculated with Microsoft Excel. The inhibition constant, Ki, was calculated by the method of Sharkey and Blumberg.

[5] = test system: HeLa cells; settings: read-out: IC50 (cytotoxic effects); cited from earlier work
[6] = test system: ACC-MESO-1 cells; settings: read-out: IC50 (cytotoxic effects); cited from earlier work

T1 sequence (P28867 231-281 limits assumed): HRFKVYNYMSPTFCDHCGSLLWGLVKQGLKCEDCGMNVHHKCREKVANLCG

Structure (SMILES) | pKi [1] | pIC50 [2] | Paralysis at dose less than the lethal amount ([3]; injection) | LD100 (lethal dose 100%) [3] | pKi [4] | pIC50 [5] | pIC50 [6] | Dose causing paralysis ([3]; injection, dose below the lethal dose) | Times lower binding affinity for PKC compared to lyngbyatoxin A (2) ([4]; PKCδ-C1B peptide, relative to compound 2)
CO[C@@H](CC[C@H](C)[C@H]1O[C@@]23C[C@H](OC(=O)C[C@H]([C@@H](C)O)OC(=O)C[C@](O)(O2)[C@H](C)CC3(C)C)[C@@H]1C)c1cc(O)ccc1Br [ATX, Aplysiatoxin] | 9.39 | – | – | – | – | – | – | – | –
C=C[C@@](C)(CCC=C(C)C)c1ccc2c3c(c[nH]c13)C[C@@H](CO)NC(=O)[C@H](C(C)C)N2C [compound 2, Lyngbyatoxin A] | – | 5.09 | Paralysis was not observed | 5 mg/kg | 9.96 | 4.46 | 4.96 | – | –
CO[C@@H](CC[C@H](C)[C@H]1O[C@@]23C[C@H](OC(=O)C[C@H]([C@@H](C)O)OC(=O)C[C@](O)(O2)[C@H](C)CC3(C)C)[C@@H]1C)c1cccc(O)c1 [DATX, debromoaplysiatoxin] | 9.70 | – | – | – | – | – | – | – | –
C=C[C@@](C)(CCC=C(C)C)c1ccc2c3c(c[nH]c13)C[C@@H](CO)NC(=O)[C@@H](C(C)C)N2C [compound 1, 12-Epi-lyngbyatoxin A] | – | 4.69 | – | 7.5 mg/kg | 7.77 | – | – | 0.9 mg/kg | more than 100 times
